Measurements reported in the C3SDB collision cross section collection.
Several values for one entry are separate records, joined by “and”; a condition that tells them apart may be missing. Equal values may be shown once.

How the values were obtained:
[1] = instrument: DT, single field, calibrated with ESI Low Concentration Tuning Mix (Agilent)
[2] = instrument: TW, calibrated with polyalanine and drug standards

| collision cross section (N2) ([1]; [M-H]-) | collision cross section (N2) ([1]; [M+Na]+) | collision cross section (N2) ([2]; [M+H]+) | Compound | other results |
| --- | --- | --- | --- | --- |
| 126.1 Å² |  |  | CC(=O)Oc1cccc(O)c1 [RESORCINOL MONOACETATE] |  |
|  | 177 Å² |  | CCCCC/C=C\C/C=C\CCCCCCCC(=O)O [LINOLEATE] |  |
| 124.8 Å² | 135.4 Å² |  | OC[C@@H](O)C(O)[C@@H](O)CO (some centres undefined) [XYLITOL] |  |
| 118.9 Å² | 139.8 Å² |  | O=C(O)c1c[nH]c(=O)[nH]c1=O [URACIL 5-CARBOXYLATE] |  |
| 134.5 Å² | 151.7 Å² |  | O=C(O)C1(O)C[C@@H](O)C(O)[C@H](O)C1 (some centres undefined) [QUINATE] |  |
| 118.7 Å² | 131.7 Å² |  | C=C(CC(=O)O)C(=O)O [ITACONATE] |  |
| 140.6 Å² | 147.5 Å² |  | N[C@@H](Cc1ccc(O)c(O)c1)C(=O)O [L-DOPA] | collision cross section (N2) ([1]; [M+H]+): 149.4 Å² |
| 120.2 Å² |  |  | C[C@@H](O)[C@H](N)C(=O)O [THREONINE] | collision cross section (N2) ([1]; [M+H]+): 126.7 Å² |
| 124.5 Å² |  |  | O=C(O)[C@@H]1CCCN1 [PROLINE] | collision cross section (N2) ([1]; [M+H]+): 125.1 Å² |
| 158.5 Å² and 163.8 Å² | 168.7 Å² |  | CC(=O)N[C@H]1[C@H]([C@H](O)[C@H](O)CO)OC(O)(C(=O)O)C[C@@H]1O (some centres undefined) [N-ACETYLNEURAMINATE] | collision cross section (N2) ([1]; [M+H]+): 166.5 Å²; collision cross section (N2) ([1]; [M+Na-2H]-): 171.4 Å² |
| 149.4 Å² | 160.8 Å² |  | Cc1ncc(COP(=O)(O)O)c(C=O)c1O [PYRIDOXAL-PHOSPHATE] | collision cross section (N2) ([1]; [M+H]+): 151.3 Å²; collision cross section (N2) ([1]; [M+Na-2H]-): 153.2 Å² |
| 126.5 Å² | 137.9 Å² |  | O=C(O)CCCC(=O)C(=O)O [OXOADIPATE] | collision cross section (N2) ([1]; [M+Na-2H]-): 132.2 Å² |
|  |  | 173.6 Å² | Cc1cccc(N(C)C(=S)Oc2ccc3ccccc3c2)c1 [TOLNAFTATE] |  |
|  |  | 152.7 Å² | NC(=O)N1c2ccccc2CC(=O)c2ccccc21 [OXCARBAZEPINE] |  |
|  |  | 126.8 Å² | C1N2CN3CN1CN(C2)C3 [METHENAMINE] |  |
|  |  | 181.2 Å² | Cc1ccccc1N1C(=O)c2cc(S(N)(=O)=O)c(Cl)cc2NC1C (centres undefined) [METOLAZONE] |  |
|  |  | 171.8 Å² | CC(C)(C)NCC(O)COc1cccc2c1C[C@H](O)[C@H](O)C2 (some centres undefined) [NADOLOL] |  |
|  |  | 153.5 Å² | CC(C)=CCOc1cc2oc(=O)ccc2cc1O [PRENYLETIN] |  |
|  |  | 164.5 Å² | COc1cc(C(=O)N2CCOCC2)cc(OC)c1OC [TRIMETOZINE] |  |
|  |  | 185.8 Å² | CCOC(=O)N1CCC(=C2c3ccc(Cl)cc3CCc3cccnc32)CC1 [LORATADINE] |  |
|  |  | 173.2 Å² | CC(=O)Nc1ccc(S(=O)(=O)Nc2ccc([N+](=O)[O-])cc2)cc1 [SULFANITRAN] |  |
|  |  | 145.3 Å² | CCn1cc(C(=O)O)c(=O)c2ccc(C)nc21 [NALIDIXIC ACID] |  |

More lines, now with the values behind:

| Compound | collision cross section (N2) ([1]; [M-H]-) | collision cross section (N2) ([1]; [M+Na]+) | collision cross section (N2) ([2]; [M+H]+) | other results |
| --- | --- | --- | --- | --- |
| O=C(O)c1cccc(O)c1[O-] [2,3-DIHYDROXYBENZOATE] | 120.6 Å² |  |  |  |
| C=Cc1c(C)c2cc3[nH]c(cc4nc(cc5nc(cc1[nH]2)C(C)=C5CCC(=O)O)C(CCC(=O)O)=C4C)c(C)c3C=C [PROTOPORPHYRIN] |  |  |  | collision cross section (N2) ([1]; [M+H]+): 241.3 Å² |
| O=C(O)c1ccc([O-])cc1 [4-HYDROXYBENZOATE] | 121.2 Å² |  |  |  |
| O=CC[C@H](O)[C@H](O)CO [DEOXYRIBOSE] |  | 134.3 Å² |  |  |
| CC(O)(CC(=O)O)C(=O)O (centres undefined) [CITRAMALATE] | 122 Å² | 133.2 Å² |  |  |
| O=C(O)C(O)COP(=O)(O)O (centres undefined) [3-PHOSPHOGLYCERATE] | 124.4 Å² | 139.4 Å² |  | collision cross section (N2) ([1]; [M+H]+): 136.1 Å²; collision cross section (N2) ([1]; [M+Na-2H]-): 133 Å² and 141.6 Å² |
| NC(N)=NCC(=O)O [GUANIDINOACETATE] |  | 134.6 Å² |  | collision cross section (N2) ([1]; [M+H]+): 124.9 Å² |
| Nc1ccnc(=O)[nH]1 [CYTOSINE] |  |  |  | collision cross section (N2) ([1]; [M+H]+): 122.8 Å² |
| NC(CCCC(=O)O)C(=O)O (centres undefined) [AMINOADIPATE] | 129.9 Å² | 139.2 Å² |  | collision cross section (N2) ([1]; [M+H]+): 134.6 Å²; collision cross section (N2) ([1]; [M+Na-2H]-): 134 Å² |
| C[N+](C)(C)C[C@@H](CC(=O)[O-])OC(=O)CCCC(=O)O [GLUTARYLCARNITINE] | 165.3 Å² | 167.1 Å² |  | collision cross section (N2) ([1]; [M+H]+): 161.1 Å² |
| OC[C@@H](O)[C@@H](O)CO [ERYTHRITOL] |  | 129.9 Å² |  |  |
| O=c1nc[nH]c2c1ncn2[C@@H]1O[C@H](CO)[C@@H](O)[C@H]1O [INOSINE] | 158.2 Å² | 170.8 Å² |  | collision cross section (N2) ([1]; [M+K]+): 170.2 Å² |
| Nc1ccccc1C(=O)O [ANTHRANILATE] | 125.5 Å² |  |  |  |
| COc1cc(CCN)ccc1O [3-METHOXYTYRAMINE] |  |  |  | collision cross section (N2) ([1]; [M+H]+): 146.7 Å² |
| O=C(O)[C@H]1C[C@@H](O)CN1 [CIS-4-HYDROXY-D-PROLINE] | 124.3 Å² | 130.6 Å² |  | collision cross section (N2) ([1]; [M+H]+): 128.3 Å² |
| O=C(O)[C@H](O)[C@@H](O)[C@H](O)[C@H](O)CO [GLUCONATE] | 132.4 Å² | 146.2 Å² and 146.3 Å² |  |  |
| CC(C)=CC(=O)SCCNC(=O)CCNC(=O)C(O)C(C)(C)COP(=O)(O)OP(=O)(O)OC[C@H]1O[C@@H](n2cnc3c(N)ncnc32)[C@H](O)[C@@H]1OP(=O)(O)O (some centres undefined) [3-METHYLCROTONYL-COA] | 256.7 Å² |  |  | collision cross section (N2) ([1]; [M+H]+): 256.1 Å²; collision cross section (N2) ([1]; [M+Na-2H]-): 266.9 Å² |
| O=C(O)[C@H](O)[C@@H](O)[C@H](O)[C@H](O)COP(=O)(O)O [6-PHOSPHOGLUCONATE] | 143.6 Å² | 157.6 Å² |  | collision cross section (N2) ([1]; [M+Na-2H]-): 148.9 Å² |
| O=C(O)c1ccc2ccccc2n1 [2-QUINOLINECARBOXYLATE] |  |  |  | collision cross section (N2) ([1]; [M+H]+): 132 Å² |
| O=C(O)CCCCCCCCCCCO [OMEGA-HYDROXYDODECANOATE] | 152.6 Å² | 160.3 Å² |  |  |
| NC(N)=NCCCC(=O)O [4-GUANIDINOBUTANOATE] |  |  |  | collision cross section (N2) ([1]; [M+H]+): 130 Å² |

| Compound | collision cross section (N2) ([1]; [M-H]-) | collision cross section (N2) ([1]; [M+Na]+) | collision cross section (N2) ([2]; [M+H]+) | other results |
| --- | --- | --- | --- | --- |
| O=C(O)Cc1ccc(O)c(O)c1 [3,4-DIHYDROXYPHENYLACETATE] |  |  |  | collision cross section (N2) ([1]; [M+Na-2H]-): 139.9 Å² |
| N#C[C@H](O[C@@H]1O[C@H](CO[C@@H]2O[C@H](CO)[C@@H](O)[C@H](O)[C@H]2O)[C@@H](O)[C@H](O)[C@H]1O)c1ccccc1 [AMYGDALIN] |  |  | 200.6 Å² |  |
| CN1[C@@H]2CC[C@H]1CC(OC(=O)[C@H](CO)c1ccccc1)C2 (some centres undefined) [HYOSCYAMINE] |  |  | 169.7 Å² |  |
| CC1(C)[C@@H](O)CC[C@]2(C)[C@H]3C(=O)C=C4[C@@H]5C[C@@](C)(C(=O)O)CC[C@]5(C)CC[C@@]4(C)[C@]3(C)CC[C@@H]12 [ENOXOLONE] |  |  | 213.9 Å² |  |
| COc1ccc(-c2cc(=O)c3ccccc3o2)cc1 [4'-METHOXYFLAVONE] |  |  | 152.1 Å² |  |
| CC[C@@]1(O)C(=O)OCc2c1cc1n(c2=O)Cc2cc3ccccc3nc2-1 [CAMPTOTHECIN] |  |  | 181.9 Å² |  |
| CCOC(=O)n1ccn(C)c1=S [CARBIMAZOLE] |  |  | 134.4 Å² |  |
| CC(=O)O[C@H]1CC[C@@]2(C)[C@@H](CC[C@@H]3[C@@H]2CC(=O)[C@]2(C)[C@@H]4[C@H](C[C@@H]32)O[C@]2(CC[C@@H](C)CO2)[C@H]4C)C1 [HECOGENIN ACETATE] |  |  | 223.4 Å² |  |
| Cc1c2oc3c(C)ccc(C(=O)N[C@@H]4C(=O)N[C@H](C(C)C)C(=O)N5CCC[C@H]5C(=O)N(C)CC(=O)N(C)[C@@H](C(C)C)C(=O)O[C@@H]4C)c3nc-2c(C(=O)N[C@@H]2C(=O)N[C@H](C(C)C)C(=O)N3CCC[C@H]3C(=O)N(C)CC(=O)N(C)[C@@H](C(C)C)C(=O)O[C@@H]2C)c(N)c1=O [DACTINOMYCIN] |  |  | 341.2 Å² |  |
| Cc1[nH]c2ccccc2c1CN(C)C [2-METHYL GRAMINE] |  |  | 140.6 Å² |  |
| CCCCCCCCCCOc1cc2c(=O)c(C(=O)OCC)c[nH]c2cc1OCC [DECOQUINATE] |  |  | 216.2 Å² |  |
| CC[C@H]1CN2CCc3cc(OC)c(OC)cc3[C@@H]2C[C@@H]1C[C@H]1NCCc2cc(OC)c(OC)cc21 [EMETINE] |  |  | 219.6 Å² |  |
| COc1ccc2c(c1)=NC1=C(C)NCCC=21 [HARMALINE] |  |  | 146.2 Å² |  |
| COc1cc2c(cc1OC)[C@@H]1C(=O)c3ccc4c(c3O[C@@H]1CO2)C=CC(C)(C)O4 [DEGUELIN(-)] |  |  | 194.2 Å² |  |
| NC(N)=Nc1nc(CSCC/C(N)=N/S(N)(=O)=O)cs1 [FAMOTIDINE] |  |  | 167.2 Å² |  |
| O=c1c(-c2cc(O)c(O)c(O)c2)coc2cc(O)c(O)c(O)c12 [IRIGENOL] |  |  | 166.5 Å² |  |
| CC(C)=CCC/C(C)=C/CC/C(C)=C/CC/C(C)=C/CC/C(C)=C/CC/C(C)=C/CC/C(C)=C/CC/C(C)=C/CC/C(C)=C/CO [SOLANESOL] |  |  |  | collision cross section (N2) ([2]; [M+H-H2O]+): 256.8 Å² |
| COc1ccc(-c2cc(=O)c3c(O)cc(O)cc3o2)cc1O [DIOSMETIN] |  |  | 164.8 Å² |  |
| Nc1ccc([As](=O)(O)O)cc1 [ARSANILIC ACID] |  |  | 133.2 Å² |  |
| Nc1nc(=O)c2nc(CNc3ccc(C(=O)N[C@@H](CCC(=O)O)C(=O)O)cc3)cnc2[nH]1 [FOLIC ACID] |  |  | 196.8 Å² |  |
